Data: patent US12044680B2, “Peptide exchange system and method” (priority 2016, dated 2024)
Read-outs that look alike come from different tables or passages of the source. One block for each substance: values may come before it. Ends that are not written are not given here. * marks the point of attachment. DNP = dinitrophenol (DNP) tag on lysine, O=[N+]([O-])c1ccc(*)c([N+](=O)[O-])c1; Dnp = O=[N+]([O-])c1ccc(*)c([N+](=O)[O-])c1

Key:
[1] = target: H-2 Kb tetramers (PE, APC or BV421) with exiting peptide TFQRK(DNP)PAAF (Mus musculus, UniProt P01901); settings: glycyl-methionine, 4 hours room temperature; for Exchange rate, APC: H-2 Kb APC tetramer; for Exchange rate, BV421: H-2 Kb BV421 tetramer; for Exchange rate, PE: H-2 Kb PE tetramer
Experimental: The mixtures were incubated for 4 hours at room temperature, protected from light.
20 μL of magnetic capture beads were added to wells of a v-bottom 96-well plate for each tested peptide plus wells for control samples. Each test well received 5 μL from the peptide exchange samples. The plate was shaken for 45 minutes at 550 rpm, room temperature, protected from light. After bead rinse, wells received 25 μL of 1× exiting peptide antibody. The plate was shaken for 45 minutes at 550 rpm, room temperature, protected from light. Beads were rinsed, resuspended in 1× assay buffer and run on a FC500 Flow Cytometer. Single beads were gated on FSC vs. SSC and MFI were measured on 500 events per test. Peptide exchange rate was calculated using a calibration curve generated with MFI values from controls.

[2] = target: T1, HLA-A*02:01 tetramers with exiting peptide ILKEKK(DNP)VHGV (Homo sapiens, UniProt P04439, D140Y/D185E/D98H/E176V/E277Q/G131W/G231S/I119V/I121R/I166T/I218V/L300P/L318F/N151K/N90K/P208A/P217A/Q86G/Q94H/R138H/R169H/T345S); assay: HLA-A*02:01 peptide exchange quantitation; type: binding; settings: entering peptide 20 μM final, 4 hours; HLA-A*02:01 tetramer
T1 construct: prepared as known in the art, for instance by deletion of the transmembrane domain and the cytoplasmic domain; made in house
Experimental: Peptide Exchange Procedure: 50 μL of the tetramer solution is combined with 1 μL of peptide exchange factor, such as glycyl methionine, (resulting in a final peptide exchange factor concentration of 5-20 mM) and 1 μL of the peptide solution and the resulting solution was mixed, then incubated at room temperature for four hours.
Sandwich magnetic bead immunoassay: 20 μL capture beads is pipetted into wells 1-4 on a 96-well plate. 5 μL assay buffer is pipetted into well 2. 5 μL of exchanged tetramer is pipetted into well 4. Additional exchanged tetramers may be pipetted into wells 5 and up. The plate is protected from light and shaken for 45 min at 550 rpms/min. 150 μL of assay buffer is dispensed into each well. The plate is placed on a plate magnet and the beads are permitted to sediment for at least 5 minutes.
Separately, a preparation of the FITC-conjugated anti-tag antibody is prepared at 10 μg/mL. 25 μL of the FITC-conjugated anti-tag antibody is pipetted into each well except well 1, and the plate is again protected from light and shaken for 45 min at 550 rpms/min.
150 μL of assay buffer is dispensed into each well, and the plate is placed on a plate magnet. The beads are permitted to sediment for at least 5 minutes. The beads are resuspended in sheath fluid and transferred to labeled flow cytometer tubes (referred to herein by the number of the well they are drawn from), which are then analyzed on a flow cytometer.
Flow Cytometry Analysis: Unused magnetic beads are used to set FSC (forward-scattered light) and SSC (side-scattered light) voltages and gains such that a live gate selects single beads and excludes doublets and larger clumps, see FIG. 1A. […] Tube 1 is run to perform compensation in FL1 in order to eliminate fluorochrome interference in the FITC channel, see FIG. 1C. The FL1 MFI is set to the first log decade, close to that obtained with beads only. Tube 2, which contains beads that have captured no tetramer and therefore no tagged peptide, is run to calibrate the level for 0% tagged peptide, i.e. 100% peptide exchange (see FIG. 1D). In the exemplary data provided here, the MFI is 0.287. Tube 3, which contains a solution where all tetramers display the original tagged peptide, is run to calibrate the level for 100% tagged peptide, i.e. 0% peptide exchange (see FIG. 1E). In the exemplary data provided here, the MFI is 20.4. Tubes 4 and up are run to evaluate the samples. Peptide exchanged tetramers will display various quantities of tagged peptides, depending on their binding affinities to HLA-A*02:01 molecules. Therefore, the FL1 MFI measured will be intermediary between MFI values obtained with tubes 2 and 3. See FIG. 1F, where in the exemplary data provided here, the MFI is 9.37.
(§1) Peptide exchange data were obtained after incubating peptides (20 μM final) with tetramer for 4 hours, then followed by capture with anti HLA-ABC beads and staining with an anti-DNP FITC antibody.

[3] = target: T2, HLA-A*24:02 tetramers with exiting peptide TFQRK(DNP)PAAF (Homo sapiens, UniProt P04439, D101N/D140Y/D185E/E176V/E190D/F33S/G103R/G107R/I119L/I121M/I306V/K335N/L105A/L180Q/L300P/N151K/N90K/Q86E/Q94H/R106L/R138H/R89G/T104I/T345S/V100E/W191G/Y123F); assay: HLA-A*24:02 peptide exchange quantitation; type: binding; settings: competing peptide 20 μM final, 4 hours; HLA-A*24:02 tetramer
T2 construct: prepared as known in the art, for instance by deletion of the transmembrane domain and the cytoplasmic domain; made in house
Experimental: as §1

[4] = target: T3, HLA-A*02:01 tetramers (Homo sapiens, UniProt P04439, D140Y/D185E/D98H/E176V/E277Q/G131W/G231S/I119V/I121R/I166T/I218V/L300P/L318F/N151K/N90K/P208A/P217A/Q86G/Q94H/R138H/R169H/T345S); assay: Comparison of exiting peptides: peptide exchange on HLA-A*02:01 tetramers against […]; type: binding; settings: GM 10 mM; YLLEFTPPV at 10 and 1 μg/mL; compared with ILKEK(DNP)VHGV
T3 construct: prepared as known in the art, for instance by deletion of the transmembrane domain and the cytoplasmic domain; made in house
Experimental: Peptide exchange was performed using two HLA-A*02:01 tetramers at 280 μg/mL made with peptides ILKEKK(DNP)VHGV (SEQ ID NO: 3) and ILKEK(DNP)VHGV (SEQ ID NO: 4). […] Tetramers were captured with beads conjugated with an anti HLA-ABC specific antibody at 10 μg/mL.

[5] = target: T4, HLA-A*02:01 Tetramers containing exiting peptide ILKEKK(DNP)VHGV (Homo sapiens, UniProt P04439, D140Y/D185E/D98H/E176V/E277Q/G131W/G231S/I119V/I121R/I166T/I218V/L300P/L318F/N151K/N90K/P208A/P217A/Q86G/Q94H/R138H/R169H/T345S); assay: Quantified peptide exchange assay of vaccine and individual peptide; type: binding
T4 construct: prepared as known in the art, for instance by deletion of the transmembrane domain and the cytoplasmic domain; made in house
Experimental: Quantified Peptide Exchange Assay: HLA-A*02:01 Tetramers were prepared containing exiting peptide ILKEKK(DNP)VHGV (SEQ ID NO: 3). Peptide exchange was performed against (a) the peptide prepared individually in a buffered solution or (b) in the DPX-Survivac vaccine prepared in an aqueous formulation. HLA-A*02:01 tetramer, and peptide exchange factor glycylmethionine were mixed with each peptide to be tested. Peptide exchange was then quantified by the flow cytometric sandwich immunoassay using magnetic capture beads.
Comparison of Peptide Exchange Assay to T2 HLA-A2 Shift assay: The peptide exchange assay described herein and the T2 HLA-A2 shift assay were conducted on various amounts of peptide per reaction. The results are presented in FIGS. 12D (T2 HLA-A2 shift assay) and 12E (peptide exchange assay), with the three independent repeats shown in diamonds, squares, and triangles. The T2 Shift assay provides a high degree of linearity when applied to the samples containing 10 μg/reaction to 110 μg/reaction of SurA2.M peptide.

[6] = target: T5, H-2 Kb tetramers (Mus musculus, UniProt P01901); assay: Selection of exiting peptide: peptide exchange on H-2 Kb tetramers with competing peptides; type: binding, murine; settings: H-2 Kb tetramers 280 μg/mL; competing peptides 10 μg/mL
T5 construct: prepared as known in the art, for instance by deletion of the transmembrane domain and the cytoplasmic domain; made in house
T5 sequence (P01901 22-305 limits assumed): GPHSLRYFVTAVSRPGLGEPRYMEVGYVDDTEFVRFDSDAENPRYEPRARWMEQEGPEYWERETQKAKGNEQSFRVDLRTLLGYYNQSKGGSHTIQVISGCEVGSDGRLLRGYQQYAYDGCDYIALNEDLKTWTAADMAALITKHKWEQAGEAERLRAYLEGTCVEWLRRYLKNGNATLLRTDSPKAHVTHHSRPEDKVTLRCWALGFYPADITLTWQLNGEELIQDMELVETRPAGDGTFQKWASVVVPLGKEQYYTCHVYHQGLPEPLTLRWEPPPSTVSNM
Experimental: Peptide exchange was performed using two H-2 Kb tetramers at 280 jig/mL that were made with peptides MTYK(DNP)FPVT (SEQ ID NO: 1) and YTVK(DNP)FALV (SEQ ID NO: 2). Exchange was performed in the presence of competing peptides at 10 μg/mL. Tetramers were captured with beads conjugated with an anti H-2 Kb specific antibody. Detection was performed with a FITC-conjugated anti-DNP antibody at 10 μg/mL. The results are depicted in FIG. 6, where the exiting peptides are labeled as follows: […]

Substance: SIYRYYGL [Reference Peptide]
- Exchange rate, APC ([1]; Reference Peptide 2 μM): 97.08
- Exchange rate, APC ([1]; Reference Peptide 20 μM): 99.13
- Exchange rate, BV421 ([1]; Reference Peptide 2 μM): 90.56
- Exchange rate, BV421 ([1]; Reference Peptide 20 μM): 97.34
- Exchange rate, PE ([1]; Reference Peptide 2 μM): 92.72
- Exchange rate, PE ([1]; Reference Peptide 20 μM): 100

Substance: IMQLMPFGC
- % peptide exchange [2]: 40.9%

Substance: CINGVCWTV
- % peptide exchange [2]: 85.3%

Substance: LNMADKKET
- % peptide exchange [3]: 10.32%

Substance: ILKEKK(Dnp)VHGV
- Performance of the exiting peptide in peptide exchange [4]: performs better in peptide exchange

Substance: RAHYNIVTF
- % peptide exchange [3]: 85.58%

Substance: LTLGEFLKL
- % peptide exchange [2]: 43.6%

Substance: IYSTVASSL
- % peptide exchange [3]: 100.98%

Substance: RYMRWTYRF
- % peptide exchange [3]: 101.29%

Substance: GYSLKLSKL
- % peptide exchange [3]: 37.93%

Substance: SLPPPGTRV
- % peptide exchange [2]: 86.6%

Substance: IRLRPGGKK
- % peptide exchange [2]: 25.0%

Substance: AVLDGLLSL
- % peptide exchange [2]: 90.7%

Substance: CSLWNGPHL
- % peptide exchange [2]: 55.2%

Substance: RVRAYTYSK
- % peptide exchange [3]: 10.32%

Substance: WMHHNMDLI
- % peptide exchange [2]: 89.2%

Substance: ATDALMTGY
- % peptide exchange [3]: 7.74%

Substance: IMQIMPYGC
- % peptide exchange [2]: 59.9%

Substance: ATVQGQNLK
- % peptide exchange [2]: 27.9%

Substance: SYVPSAEQI
- % peptide exchange [2]: 25.0%

Substance: GLADQLIHL
- % peptide exchange [3]: 0.86%
- % peptide exchange [2]: 91.4%

Substance: YLLEFTPPV
- % peptide exchange [2]: 91.9%

Substance: GLAVVTHGL
- % peptide exchange [2]: 91.0%

Substance: FLYDDNQRV
- % peptide exchange [2]: 91.2%

Substance: LMLGEFLKL [SurA2.M]
- Peptide exchange rate, individually in buffered solution versus in the vaccine ([5]; three independent repeats, Student's t-test at p<0.05): not statistically distinguishable
- Upper limit of quantification of the peptide exchange assay ([5]; various amounts of peptide per reaction): below 0.2 μg/reaction

Substance: ALALEVGEL
- % peptide exchange [2]: 85.1%

Substance: FLSELTQQL
- % peptide exchange [3]: 23.65%

Substance: ALLAVGATK
- % peptide exchange [2]: 25.7%

Substance: RIKDFLRNL
- % peptide exchange [2]: 34.0%

Substance: EYILSLEEL
- % peptide exchange [2]: 24.2%

Substance: WMHKVPASL
- % peptide exchange [2]: 87.9%

Substance: MTYK(DNP)FPVT
- Exchangeability of tetramers built with the exiting peptide [6]: allowed exchange with a wide range of peptides

- Exchangeability of tetramers built with the exiting peptide [6]: not possible
Substance: YTVK(DNP)FALV

Substance: AMAPRTLLL
- % peptide exchange [3]: 81.62%
